pEC50: −log10 of the molar value.
Test system: HCV genotype 1b replicon
Assay: HCV replicon assay (1b_Huh-Luc/Neo-ET cell line, luciferase readout)
Type: cell-based
Conditions: Hepatitis C virus, Huh-7, 72 h, read-out: Inhibition of HCV genotype 1b
Summary of the method: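 1b_Huh-Luc/Neo-ET Huh 7 cells carrying a bicistronic genotype 1b replicon; compounds added in triplicate the day after plating, 72 h incubation, then Bright-Glo luciferase read-out. Signal expressed as % of control; EC50 from curve fit, repeated several times.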

`COC(=O)N[C@H](C(=O)N1CCC[C@H]1c1ncc(-c2ccc3cc(-c4ccc5nc([C@@H]6CCCN6C(=O)[C@@H](NC(=O)OC)[C@@H](C)OC)[nH]c5c4)ccc3c2)[nH]1)[C@@H](C)OC` [compound 176] and `COC(=O)N[C@H](C(=O)N1CCC[C@H]1c1ncc(-c2ccc3cc(-c4ccc5nc([C@@H]6CCCN6C(=O)[C@@H](NC(=O)OC)C6CCOCC6)[nH]c5c4)ccc3c2)[nH]1)C(C)C` [compound 189] cannot be ordered by pEC50: > 9.00 for the first, > 9.00 for the second.

`COC(=O)N[C@H](C(=O)N1CCC[C@H]1c1ncc(-c2ccc3cc(-c4ccc5nc([C@@H]6CCCN6C(=O)[C@@H](c6ccccc6)N(C)C)[nH]c5c4)ccc3c2)[nH]1)C(C)C` [compound 177] and `COC(=O)N[C@H](C(=O)N1CCC[C@H]1c1nc2ccc(-c3ccc4cc(-c5cnc([C@@H]6CCCN6C(=O)[C@@H](c6ccccc6)N(C)C)[nH]5)ccc4c3)cc2[nH]1)C(C)C` [compound 182] cannot be ordered by pEC50: > 9.00 for the first, > 9.00 for the second.

`COC(=O)N[C@H](C(=O)N1CCC[C@H]1c1nc2ccc(-c3ccc4cc(-c5cnc([C@@H]6CCCN6C(=O)[C@@H](c6ccccc6)N6CCCC6)[nH]5)ccc4c3)cc2[nH]1)C(C)C` [compound 178] and `COC(=O)N[C@H](C(=O)N1CCC[C@H]1c1ncc(-c2ccc3cc(-c4ccc5nc([C@@H]6CCCN6C(=O)[C@@H](c6ccccc6)N6CCCC6)[nH]c5c4)ccc3c2)[nH]1)C(C)C` [compound 180] cannot be ordered by pEC50: > 9.00 for the first, > 9.00 for the second.

`COC(=O)N[C@H](C(=O)N1CCC[C@H]1c1nc2ccc(-c3ccc4cc(-c5cnc([C@@H]6CCCN6C(=O)[C@H](NC(=O)OC)c6ccccc6)[nH]5)ccc4c3)cc2[nH]1)C(C)C` [compound 179] and `COC(=O)N[C@H](C(=O)N1CCC[C@H]1c1ncc(-c2ccc3cc(-c4ccc5nc([C@@H]6CCCN6C(=O)[C@H](NC(=O)OC)c6ccccc6)[nH]c5c4)ccc3c2)[nH]1)C(C)C` [compound 181] cannot be ordered by pEC50: > 9.00 for the first, > 9.00 for the second.

`COC(=O)N[C@H](C(=O)N1CCC[C@H]1c1nc2ccc(-c3ccc4cc(-c5cnc([C@@H]6CCCN6C(=O)[C@H](NC(=O)N6CC[C@H](O)C6)c6ccccc6)[nH]5)ccc4c3)cc2[nH]1)C(C)C` [compound 183] and `COC(=O)N[C@H](C(=O)N1CCC[C@H]1c1ncc(-c2ccc3cc(-c4ccc5nc([C@@H]6CCCN6C(=O)[C@H](NC(=O)N6CC[C@H](O)C6)c6ccccc6)[nH]c5c4)ccc3c2)[nH]1)C(C)C` [compound 185] cannot be ordered by pEC50: > 9.00 for the first, > 9.00 for the second.

First: CNC(=O)N[C@@H](C(=O)N1CCC[C@H]1c1ncc(-c2ccc3cc(-c4ccc5nc([C@@H]6CCCN6C(=O)[C@@H](NC(=O)OC)C(C)C)[nH]c5c4)ccc3c2)[nH]1)c1ccccc1 [compound 186]
Second: COC(=O)N[C@H](C(=O)N1CCC[C@H]1c1ncc(-c2cnc3cc(-c4ccc5nc([C@@H]6CCCN6C(=O)[C@H](NC(=O)OC)c6ccccc6)[nH]c5c4)ccc3c2)[nH]1)C(C)C [compound 188]
The pEC50 of the first is higher: > 9.00 for the first, 8.00 to 9.00 for the second.

`COC(=O)N[C@H](C(=O)N1CCC[C@H]1c1ncc(-c2cnc3cc(-c4ccc5nc([C@@H]6CCCN6C(=O)[C@@H](NC(=O)OC)C(C)C)[nH]c5c4)ccc3c2)[nH]1)C(C)C` [compound 187] and `COC(=O)N[C@H](C(=O)N1CCC[C@H]1c1ncc(-c2ccc3cc(-c4ccc5nc([C@@H]6CCCN6C(=O)[C@@H](NC(=O)OC)C(C)C)[nH]c5c4)ncc3c2)[nH]1)C(C)C` [compound 204] cannot be ordered by pEC50: > 9.00 for the first, > 9.00 for the second.

`COC(=O)N[C@H](C(=O)N1CCC[C@H]1c1nc2ccc(-c3ccc4cc(-c5cnc([C@@H]6CCCN6C(=O)[C@@H](NC(=O)OC)C6CCOCC6)[nH]5)ccc4c3)cc2[nH]1)C(C)C` [compound 190] and `COC(=O)N[C@H](C(=O)N1CCC[C@H]1c1nc2ccc(-c3ccc4cc(-c5cnc([C@@H]6CCCN6C(=O)[C@@H](NC(=O)OC)C6CCOCC6)[nH]5)cnc4c3)cc2[nH]1)C(C)C` [compound 191] cannot be ordered by pEC50: > 9.00 for the first, > 9.00 for the second.

`COC(=O)N[C@H](C(=O)N1CCC[C@H]1c1ncc(-c2cnc3cc(-c4ccc5nc([C@@H]6CCCN6C(=O)[C@@H](NC(=O)OC)C6CCOCC6)[nH]c5c4)ccc3c2)[nH]1)C(C)C` [compound 192] and `COC(=O)N[C@H](C(=O)N1CCC[C@H]1c1nc2ccc(-c3ccc4cc(-c5cnc([C@@H]6CCCN6C(=O)[C@@H](NC(=O)OC)C6CCOCC6)[nH]5)ccc4n3)cc2[nH]1)C(C)C` [compound 194] cannot be ordered by pEC50: > 9.00 for the first, > 9.00 for the second.

`COC(=O)N[C@H](C(=O)N1CCC[C@H]1c1ncc(-c2ccc3nc(-c4ccc5nc([C@@H]6CCCN6C(=O)[C@@H](NC(=O)OC)C(C)C)[nH]c5c4)ccc3c2)[nH]1)C(C)C` [compound 193] and `COC(=O)N[C@H](C(=O)N1CCC[C@H]1c1ncc(-c2ccc3cc(-c4ccc5nc([C@@H]6CCCN6C(=O)[C@@H](NC(=O)OC)C(C)C)[nH]c5n4)ccc3c2)[nH]1)C(C)C` [compound 198] cannot be ordered by pEC50: > 9.00 for the first, > 9.00 for the second.

`COC(=O)N[C@H](C(=O)N1CCC[C@H]1c1nc2ccc(-c3ccc4cc(-c5cnc([C@@H]6CCCN6C(=O)[C@H](NC(=O)OC)c6ccccc6)[nH]5)cnc4c3)cc2[nH]1)C(C)C` [compound 195] and `COC(=O)N[C@H](C(=O)N1CCC[C@H]1c1nc2ccc(-c3ccc4cc(-c5cnc([C@@H]6CCCN6C(=O)[C@H](NC(=O)OC)c6ccccc6)[nH]5)ccc4n3)cc2[nH]1)C(C)C` [compound 196] cannot be ordered by pEC50: > 9.00 for the first, > 9.00 for the second.

`COC(=O)N[C@H](C(=O)N1CCC[C@H]1c1ncc(-c2ccc3nc(-c4ccc5nc([C@@H]6CCCN6C(=O)[C@H](NC(=O)OC)c6ccccc6)[nH]c5c4)ccc3c2)[nH]1)C(C)C` [compound 197] and `COC(=O)N[C@H](C(=O)N1CCC[C@H]1c1ncc(-c2ccc3cc(-c4ccc5nc([C@@H]6CCCN6C(=O)[C@H](NC(=O)OC)c6ccccc6)[nH]c5n4)ccc3c2)[nH]1)C(C)C` [compound 199] cannot be ordered by pEC50: > 9.00 for the first, > 9.00 for the second.

`COC(=O)N[C@H](C(=O)N1CCC[C@H]1c1nc2ccc(-c3ccc4cc(-c5cnc([C@@H]6CCCN6C(=O)[C@H](NC(=O)OC)c6ccccc6)[nH]5)ccc4c3)nc2[nH]1)C(C)C` [compound 200] and `COC(=O)N[C@H](C(=O)N1CCC[C@H]1c1nc2ccc(-c3ccc4cc(-c5cnc([C@@H]6CCCN6C(=O)[C@@H](NC(=O)OC)C6CCOCC6)[nH]5)ccc4c3)nc2[nH]1)C(C)C` [compound 201] cannot be ordered by pEC50: > 9.00 for the first, > 9.00 for the second.

`COC(=O)N[C@H](C(=O)N1CCC[C@H]1c1ncc(-c2ccc3cc(-c4ccc5nc([C@@H]6CCCN6C(=O)[C@@H](NC(=O)OC)C6CCOCC6)[nH]c5n4)ccc3c2)[nH]1)C(C)C` [compound 202] and `COC(=O)N[C@H](C(=O)N1CCC[C@H]1c1ncc(-c2ccc3cc(-c4ccc5nc([C@@H]6CCCN6C(=O)[C@@H](NC(=O)OC)C6CCOCC6)[nH]c5n4)ccc3c2)[nH]1)C1CCOCC1` [compound 205] cannot be ordered by pEC50: > 9.00 for the first, > 9.00 for the second.

First: COC(=O)N[C@H](C(=O)N1CCC[C@H]1c1ncc(-c2ccc3cc(-c4ccc5nc([C@@H]6CCCN6C(=O)[C@@H](NC(=O)OC)C6CCOCC6)[nH]c5c4)ccc3c2)[nH]1)C1CCOCC1 [compound 203]
Second: COC(=O)N[C@H](C(=O)N1CCC[C@H]1c1ncc(-c2ccc3nc(-c4ccc5nc([C@@H]6CCCN6C(=O)[C@@H](NC(=O)OC)C6CCOCC6)[nH]c5c4)ccc3c2)[nH]1)C1CCOCC1 [compound 206]
The pEC50 of the first is higher: > 9.00 for the first, 8.00 to 9.00 for the second. The first is the more potent here.

With `COC(=O)N[C@H](C(=O)N1CCC[C@H]1c1ncc(-c2cccc3c(-c4ccc5nc([C@@H]6CCCN6C(=O)[C@@H](NC(=O)OC)C(C)C)[nH]c5c4)cccc23)[nH]1)C(C)C` [compound 207] the pEC50 was > 9.00.

Reference: patent US8618151B2, “Inhibitors of HCV NS5A” (Presidio Pharmaceuticals, Inc., priority 2008, dated 2013)
